# Results as given in publication PMC10985144, “Design, synthesis, and evaluation of the novel ozagrel–paeonol codrug with antiplatelet aggregation activities as a potent anti-stroke therapeutic agent” (Frontiers in Pharmacology, 2024).
# Where “and” joins values, the source holds several entries; their conditions need not be identical. Equal entries are not always repeated. Where two headings read alike, the source gives them in different places.
# Experiments:
# [1] = test system: ADP-induced platelet aggregation; assay: ADP-induced platelet aggregation (antiplatelet aggregation activity); type: cell-based; details: platelet aggregation induced by ADP (10 μM); mean ± SD, n = 5
# Method: (§1) The antiplatelet aggregation activity of the target compounds was evaluated against ADP- and AA-induced platelet aggregation. In other words, different concentrations of the target compound solution and POC ([Zhang J. et al., 2021]) (10 μL) were added to the plasma at 37°C for 5 min. Then, platelets were stimulated with ADP (10 μM, 30 μL) or AA (1 mM, 30 μL). Variations in absorbance were monitored for 5 min in order to measure platelet aggregation ([Daron et al., 2022]). The platelet aggregation inhibition rate (AIR) was calculated according to the following formula: AIR = (rate of aggregation (control)−rate of aggregation (compounds))/rate of aggregation (control) × 100%
# [2] = test system: AA-induced platelet aggregation; assay: AA-induced platelet aggregation (antiplatelet aggregation activity); type: cell-based; details: platelet aggregation induced by AA (1 μM); mean ± SD, n = 5
# Method: as §1, with “Then, platelets were stimulated with ADP (10 μM, 30 μL) or AA (1 mM, 30 μL).” left out
# [3] = Pharmacokinetic study after single i.g. or i.v. administration to rats; type: in vivo; details: for AUC(0-t) / AUC(0-∞) / half-life / MRT last: single 6.4 mg/kg, mean ± SD; for AUC(0-t) / AUC(0-∞) / half-life: n = 6; for MRT last: n = 6, read-out: MRT (0-t) (converted)
# Method: Six rats were given compound 8b (6.4 mg/kg) ([Zhang J. et al., 2021]) by intravenous injection (i.v.) and intragastric administration (i.g.), respectively. The animal experiment protocol was performed according to the guidelines for animal experiments and supervised by the Experimental Animal Ethics Committee of Anhui University of Chinese Medicine (AHUCM-rats-2019001). Then, approximately 1.0 mL of blood was taken from the orbital venous plexus of the rats and placed into an EP-containing heparin at predetermined time points of 3, 5, 10, 20, 30, 45, 60, 120, and 240 min after dosing. The blood sample was centrifuged for 15 min at 3,500 rpm to obtain plasma. For plasma preparation, 180 μL of plasma was mixed with 20 μL of glibenclamide as an internal standard and 900 μL of acetonitrile. The mixture was then centrifuged at 12,000 rpm for 10 min. After centrifugation, 800 μL of the supernatant was dried using a vacuum freeze dryer. The dried sample was then reconstituted with 200 μL of acetonitrile for LC/MS analysis. The analytical conditions for the plasma samples are as follows: a Hypersil GOLD C8 HPLC Column (2.1 mm × 100 mm, 1.9μm; Thermo Fisher Scientific, United States) was used for chromatographic separation. The column temperature was maintained at 30°C, and the sample chamber temperature was maintained at 4°C. A gradient elution with a flow rate of 0.2 mL/min (phase A: 0.1% formic acid, phase B: methanol) was carried out from 45% B to 80% within 2.5 min, then from […] to 90% within 1 min, and maintained at 90% for 1 min; subsequently, it was decreased from 90% to 45% in 30 s and maintained for 1 min. Multiple-reaction monitoring (MRM) was quoted as the acquisition mode of mass spectrometry in a positive ionization mode. The mass spectrometry detector was equipped with an electrospray ionization (ESI) source. The optimal MS parameters were as follows: the ion source temperature was set at 400°C, the vaporization temperature was set at 500°C, the electrospray voltage was set to 5500 V, and the capillary voltage was set to 3600 V. The ion pair of 8b is m/z 517.0 and 281.4, and the declustering voltage is 120 eV; the collision energy is 40 eV. Similarly, the ion pair of glibenclamide is m/z 494.1 and 169.0, the declustering voltage is 65 eV, and the collision energy is 50 eV.
# [4] = test system: PC12 cells; assay: Viability of PC12 cells, CCK-8 assay; type: cell-based, rat; details: 24 h
# Method: (§2) For the cell culture conditions, rat pheochromocytoma PC12 cells (ATCC, Manassas, VA, United States) were cultured in RPMI 1640 culture medium with 1% penicillin and streptomycin and 10% fetal bovine serum (FBS) (Gibco, Waltham, MA, United States) at 37°C with 5% CO2.
# Cell viability was assessed using a CCK-8 assay. The PC12 cells were seeded in a 96-well plate at a density of 1 × 10^5 cells per well. After incubation for 24 h, the cells were treated with various concentrations of the compound. After 24 h of re-incubation, the cell viability was evaluated using a 10% CCK-8 solution. The absorbance value was determined at 450 nm.
# [5] = test system: OGD/R PC12 cells; assay: Protective effect on OGD/R PC12 cells (oxygen-glucose deprivation), CCK-8; type: cell-based; details: Rattus norvegicus, mean ± SD, n = 5, read-out: Cell viability (%)
# Method: as §2
# For oxygen-glucose deprivation of PC12 cell activity, the procedure was conducted as follows ([Wei et al., 2022]): the cells were cultured in a 96-well plate for 24 h. Then, the culture medium was replaced with oxygen–glucose-free RPMI 1640 and placed in an incubator with 5% CO2 and 95% N2 for 2 h. Once the oxygen-free process was completed, the culture medium was changed back to RPMI 1640 and maintained at 37°C with 5% CO2 for an additional 24 h. Cell viability was then assessed using the CCK-8 assay.
# [6] = design: method as in Zhang J. et al., 2021; details: found in the authors' previous study; ref Zhang J. et al., 2021; cited from earlier work
smiles,measurement,setting,value
"O=C(O)/C=C/c1ccc(Cn2ccnc2)cc1 [Ozagrel, (E)-sodium 4-(1-imidazolomethyl) cinnamate]",IC50,[1],> 1000 µM
same,IC50,[2],52.5 ± 3.29 µM
COc1ccc(C(C)=O)c(OCCCN2CCN(C(=O)C=Cc3ccc(Cn4ccnc4)cc3)CC2)c1 [PNC2],IC50,[1],> 1000 µM
same,IC50,[2],462 ± 28.7 µM
COc1ccc(C(C)=O)c(OCCCCN2CCN(C(=O)C=Cc3ccc(Cn4ccnc4)cc3)CC2)c1 [PNC3],time remained detectable in the blood,[3]; i.g.,up to 8 h
same,MRT i.g. relative to i.v.,[3]; i.g. longer than i.v.,2.11 times
same,t1/2 i.g. relative to i.v.,[3]; i.g. longer than i.v.,2.33 times
same,AUC(0-t),[3]; i.g.,6148.338 ± 2222.737 µg·min/L
same,AUC(0-∞),[3]; i.g.,"8346.219 ± 3,719.156 μg/L*min"
same,time within which peak concentration was visible,[3]; i.v.,≤ 6 h
same,AUC(0-t),[3]; i.v.,"18,552.773 ± 7438.264 μg/L*min"
same,AUC(0-∞),[3]; i.v.,"19,250.669 ± 7673.11 μg/L*min"
same,half-life,"[3]; rat, plasma, iv",2.08 ± 0.295 h
same,MRT last,"[3]; rat, plasma, iv",2.5 h
same,Tmax,"[3]; rat, plasma, po, 6.4 mg/kg, i.g., read-out: time of peak concentration in the blood",1 h
same,half-life,"[3]; rat, plasma, po, i.g.",4.85 ± 1.74 h
same,MRT last,"[3]; rat, plasma, po, i.g.",5.28 h
same,AUC by i.g. relative to i.v.,"[3]; ratio of AUC(0-t) i.g. vs i.v., 6.4 mg/kg",33.3% and 33.1%
same,impact on cell viability,[4]; 0–0.16 μM,no impact on cell viability
same,cell survival rate,[4]; 0.08 μM,97.52%
same,cell survival rate,[4]; concentration exceeded 0.16 μM,94.03%
same,IC50,[1],485 ± 31.1 µM
same,IC50,[2],74.7 ± 4.86 µM
same,viability at 0.02 µM,"[5]; PC-12, 0.02 μM",50.5 ± 2.95%
same,viability at 0.04 µM,"[5]; PC-12, 0.04 μM",54.2 ± 2.68%
same,viability at 0.08 µM,"[5]; PC-12, 0.08 μM",62.3 ± 3.14%
COc1ccc(C(C)=O)c(OCCCCCN2CCN(C(=O)C=Cc3ccc(Cn4ccnc4)cc3)CC2)c1 [PNC4],IC50,[1],> 1000 µM
same,IC50,[2],692 ± 45.7 µM
"COc1ccc(C(C)=O)c(OCCCNC(=O)C=Cc2ccc(Cn3ccnc3)cc2)c1 [PNC5, 3-(4-((1H-imidazol-1-yl)methyl)phenyl)-N-(3-(2-acetyl-5-metho-xyphenoxy)propyl)acrylamide]",IC50,[1],> 1000 µM
same,IC50,[2],234 ± 16.6 µM
"COc1ccc(C(C)=O)c(OC(=O)C=Cc2ccc(Cn3ccnc3)cc2)c1 [POC, reference compound]",IC50,[1],842 ± 53.3 µM
same,IC50,[2],349 ± 16 µM
same,stability,[6],unstable
